Article PMC8900257 (ACS chemical biology, 2019)
“And” between values parts separate entries of the source, which are not always exact repeats. Equal entries are not always repeated. Where two headings read alike, the source gives them in different places.

Assays:
[1] = test system: M. tuberculosis H37Rv; assay: M. tuberculosis growth inhibition; type: cell-based, Mycobacterium tuberculosis; details: for MIC: Mycobacterium tuberculosis, H37RV, read-out: Mycobacterium Growth inhibition, MIC (μM) tuberculosis, Table 2, this study
[2] = test system: non-replicating M. smegmatis; assay: Cell viability by CFU assay under carbon starvation; type: cell-based, Mycobacterium smegmatis; details: Mycolicibacterium smegmatis, 96 h, read-out: colony forming unit (CFU) reduction
[3] = test system: M. tuberculosis H37Rv fructose-bisphosphate aldolase (FBA); details: ref PubChem Bioassay AID 588726; cited from earlier work
[4] = test system: M. tuberculosis; details: Table 1; nd = no detected effect; ref PubChem Bioassay AID 449762; cited from earlier work
[5] = test system: M. tuberculosis; details: Table 1; values deduced from ref PubChem Bioassay AID 1626; cited from earlier work
[6] = test system: NAD pool; assay: NAD pool level in M. smegmatis, colorimetric detection kit; type: cell-based, Mycobacterium smegmatis

## CC1CCC(C(C)C)C(OC(=O)Cn2c(COc3ccccc3)[n+](C)c3ccccc32)C1 (stereo not drawn) [N2–8]
[1]
  MIC: 21.2 µM
[2]
  log reduction at 25 µM: > 2

## CCC(C)NC(=O)c1cn(CC)c2cc(N3CCN(C(=O)c4ccco4)CC3)c(F)cc2c1=O (stereo not drawn) [N1–2]
[3]
  Enzyme inhibition (%) at 1 μM MtFBA: 54.28%
[4]
  Mycobacterium Growth inhibition MIC (μM) tuberculosis e: 50 µM

## Cc1ccccc1OCc1n(CC(=O)OC2CC(C)CCC2C(C)C)c2ccccc2[n+]1C (stereo not drawn) [N2–9]
[1]
  MIC: 38.5 µM

## CCCCNC(=O)c1cn(CC)c2cc(N3CCN(C(=O)c4ccco4)CC3)c(F)cc2c1=O [N1–5]
[3]
  Enzyme inhibition (%) at 1 μM MtFBA: 22.14%
[4]
  Mycobacterium Growth inhibition MIC (μM) tuberculosis e: >25 µM

## CCn1cc(C(=O)Nc2ncccc2O)c(=O)c2cc(F)c(N3CCN(C(=O)c4ccco4)CC3)cc21 [N1–20]
[3]
  Enzyme inhibition (%) at 1 μM MtFBA: 14.6%

## CCN(CC)CCNC(=O)c1cn(CC)c2cc(N3CCN(C(=O)c4ccco4)CC3)c(F)cc2c1=O [N1–30]
[3]
  Enzyme inhibition (%) at 1 μM MtFBA: 22.17%
[5]
  Mycobacterium Growth inhibition MIC (μM) tuberculosis d: >100 µM

## CCn1cc(C(=O)NCc2ccco2)c(=O)c2cc(F)c(N3CCN(C(=O)c4ccco4)CC3)cc21 [N1–29]
[3]
  Enzyme inhibition (%) at 1 μM MtFBA: 19.8%
[5]
  Mycobacterium Growth inhibition MIC (μM) tuberculosis d: >10 µM
[4]
  Mycobacterium Growth inhibition MIC (μM) tuberculosis e: <25 µM

## CCn1cc(C(=O)NCC(C)C)c(=O)c2cc(F)c(N3CCN(C(=O)c4ccco4)CC3)cc21 [N1–6]
[3]
  Enzyme inhibition (%) at 1 μM MtFBA: 11.37%

## CCN(CC)CCCNC(=O)c1cn(CC)c2cc(N3CCN(C(=O)c4ccco4)CC3)c(F)cc2c1=O [N1–31]
[3]
  Enzyme inhibition (%) at 1 μM MtFBA: 54.21%
[4]
  Mycobacterium Growth inhibition MIC (μM) tuberculosis e: >25 µM

## COc1ccc(OCc2n(CC(=O)OC3CC(C)CCC3C(C)C)c3ccccc3[n+]2C)cc1 (stereo not drawn) [N2–11]
[1]
  MIC: 28 µM
[1]; Table 2, this study
  Mycobacterium Growth inhibition, MIC (μM) tuberculosis: 28.2 µM
[2]
  log reduction at 25 µM: ≤ 4
[6]; inhibitor at ~5× MIC added at log-phase, samples over 6 hours
  NAD pool depletion: rapid depletion of the NAD pool

## CCCNC(=O)c1cn(CC)c2cc(N3CCN(C(=O)c4ccco4)CC3)c(F)cc2c1=O [N1–3]
[3]
  Enzyme inhibition (%) at 1 μM MtFBA: 79.9%
[4]
  Mycobacterium Growth inhibition MIC (μM) tuberculosis e: 25 µM

## CCn1cc(C(=O)NCCC(C)C)c(=O)c2cc(F)c(N3CCN(C(=O)c4ccco4)CC3)cc21 [N1–7]
[3]
  Enzyme inhibition (%) at 1 μM MtFBA: 14.68%
[4]
  Mycobacterium Growth inhibition MIC (μM) tuberculosis e: >25 µM

## CCn1cc(C(=O)NCc2ccncc2)c(=O)c2cc(F)c(N3CCN(C(=O)c4ccco4)CC3)cc21 [N1–16]
[3]
  Enzyme inhibition (%) at 1 μM MtFBA: 41.76%
[5]
  Mycobacterium Growth inhibition MIC (μM) tuberculosis d: >100 µM

## COc1ccc(-c2n(CC(=O)OC3CC(C)CCC3C(C)C)c3ccccc3[n+]2C)cc1 (stereo not drawn) [N2–7]
[6]
  NAD pool depletion: rapid depletion of the NAD pool

## CCn1cc(C(=O)NCc2ccccc2)c(=O)c2cc(F)c(N3CCN(C(=O)c4ccco4)CC3)cc21 [N1–10]
[3]
  Enzyme inhibition (%) at 1 μM MtFBA: 20% and 20.43%
[5]
  Mycobacterium Growth inhibition MIC (μM) tuberculosis d: <10 µM
[4]
  Mycobacterium Growth inhibition MIC (μM) tuberculosis e: 25 µM

## CC1CCC(C(C)C)C(OC(=O)Cn2c[n+](CC(=O)OC3CC(C)CCC3C(C)C)c3ccccc32)C1 (stereo not drawn) [N2–1]
[1]
  MIC: 46.7 µM

## CCn1cc(C(=O)NCc2cccc(F)c2)c(=O)c2cc(F)c(N3CCN(C(=O)c4ccco4)CC3)cc21 [N1–13]
[3]
  Enzyme inhibition (%) at 1 μM MtFBA: 40% and 38.2%
[5]
  Mycobacterium Growth inhibition MIC (μM) tuberculosis d: 12.5 µM
[4]
  Mycobacterium Growth inhibition MIC (μM) tuberculosis e: 25 µM

## C=CCNC(=O)c1cn(CC)c2cc(N3CCN(C(=O)c4ccco4)CC3)c(F)cc2c1=O [N1–4]
[3]
  Enzyme inhibition (%) at 1 μM MtFBA: 97.0%
[4]
  Mycobacterium Growth inhibition MIC (μM) tuberculosis e: 25 µM

## CCn1cc(C(=O)NC(C)C)c(=O)c2cc(F)c(N3CCN(C(=O)c4ccco4)CC3)cc21 [N1–1]
[3]
  Enzyme inhibition (%) at 1 μM MtFBA: 54.81%
[4]
  Mycobacterium Growth inhibition MIC (μM) tuberculosis e: >25 µM

## Cc1ccc(OCc2n(CC(=O)OC3CC(C)CCC3C(C)C)c3ccccc3[n+]2C)cc1 (stereo not drawn) [N2–10]
[1]
  MIC: 19.7 µM
